Laboratory results: ChEMBL document CHEMBL5038667, “Discovery of an Amino Acid-Modified Near-Infrared Aza-BODIPY Photosensitizer as an Immune Initiator for Potent Photodynamic Therapy in Melanoma” (J Med Chem, 2022)
Activity calls are given as the source filed them. The calls are words filed in the database; no cut-off is given here.

What was measured:
[1] = Phototoxicity against mouse B16-F10 cells assessed as reduction in cell viability incubated for 16 hrs followed by irradiated with 54 J/cm^2 of light dose and further incubated for 24 hrs by CCK-8 assay; type: toxicity, cell-based; settings: B16-F10, light or radiation study
[2] = Phototoxicity against human A-375 cells assessed as reduction in cell viability incubated for 16 hrs followed by irradiated with 54 J/cm^2 of light dose and further incubated for 24 hrs by CCK-8 assay; type: toxicity, cell-based; settings: A-375, light or radiation study
A-375 [3] = test: Induction of apoptosis in human A-375 cells assessed as total apoptotic cells at 250 nM incubated for 16 hrs followed by irradiated with 54 J/cm^2 light dose by Annexin V-FITC/PI based flow cytometric analysis (reference value: 4.79 %); type: functional
B16-F10 [4] = test: Induction of apoptosis in mouse B16-F10 cells assessed as viable cells at 10 nM incubated for 16 hrs followed by irradiated with 54 J/cm^2 of light dose by Annexin V-FITC/PI based flow cytometric analysis (reference value: 87.45 %); type: functional; settings: B16-F10, light or radiation study, read-out: Activity
B16-F10 [5] = test: Photodynamic therapy in mouse B16-F10 cells implanted in C57BL/6 mouse model assessed as increase in infiltration of CD8+ T cells by APC/FITC/PE staining based flow cytometric analysis (reference value: 3.68 %); type: functional
B16-F10 [6] = test: Induction of apoptosis in mouse B16-F10 cells assessed as early apoptotic cells at 10 nM incubated for 16 hrs followed by irradiated with 54 J/cm^2 light dose by Annexin V-FITC/PI based flow cytometric analysis (reference value: 6.48 %); type: functional
[7] = Biodistribution in kidneys of C57BL/6 mouse harboring mouse B16-F10 cells at 2 mg/kg, iv measured after 12 hrs by flourescence imaging assay; type: ADME, organism-based, Kidney; settings: in vivo
[8] = Phototoxicity against human HeLa cells assessed as reduction in cell viability incubated for 16 hrs followed by irradiated with 54 J/cm^2 of light dose and further incubated for 24 hrs by CCK-8 assay; type: toxicity, cell-based; settings: light or radiation study
A-375 [9] = test: Induction of apoptosis in human A-375 cells assessed as total apoptotic cells at 10 nM incubated for 16 hrs followed by irradiated with 54 J/cm^2 light dose by Annexin V-FITC/PI based flow cytometric analysis (reference value: 4.79 %); type: functional
B16-F10 [10] = test: Induction of apoptosis in mouse B16-F10 cells assessed as necrotic cells at 250 nM incubated for 16 hrs followed by irradiated with 54 J/cm^2 light dose by Annexin V-FITC/PI based flow cytometric analysis (reference value: 3.75 %); type: functional
B16-F10 [11] = test: Antitumor immunity against mouse B16-F10 cells assessed as surface translocation of CRT at 50 nM incubated for 16 hrs followed by irradiated with 54 J/cm^2 light dose and further incubated for 6 hrs by Alexa Fluor 488/Hoechst 33342 staining based confocal laser scanning microscopy; type: functional, cell-based
B16-F10 [12] = test: Induction of ROS generation in mouse B16-F10 cells assessed as cells with high intracellular ROS levels at 10 nM incubated for 16 hrs followed by irradiated with 54 J/cm^2 of light dose by H2DCFDA fluorescent probe based flow cytometry method (reference value: 1.96 %); type: functional
[13] = Lipophilicity, logP of compound; type: physicochemical; settings: octanol/water
[14] = Biodistribution in spleen of C57BL/6 mouse harboring mouse B16-F10 cells at 2 mg/kg, iv measured after 12 hrs by flourescence imaging assay; type: ADME, organism-based; settings: in vivo
B16-F10 [15] = test: Induction of apoptosis in mouse B16-F10 cells assessed as necrotic cells at 50 nM incubated for 16 hrs followed by irradiated with 54 J/cm^2 light dose by Annexin V-FITC/PI based flow cytometric analysis (reference value: 3.75 %); type: functional
B16-F10 [16] = test: Antitumor immunity against mouse B16-F10 cells assessed as surface translocation of CRT at 10 nM incubated for 16 hrs followed by irradiated with 54 J/cm^2 light dose and further incubated for 6 hrs by Alexa Fluor 488/Hoechst 33342 staining based confocal laser scanning microscopy; type: functional, cell-based
B16-F10 [17] = test: Biodistribution in tumor of C57BL/6 mouse harboring mouse B16-F10 cells at 2 mg/kg, iv measured after 12 hrs by flourescence imaging assay; type: ADME, organism-based; settings: in vivo
[18] = Drug localisation in lysosome of human A-375 cells at 5 uM incubated for 16 hrs by Lyso Tracker Green based confocal laser scanning microscopy analysis; type: ADME, subcellular; settings: a-375, 16 h
B16-F10 [19] = test: Antitumor immunity against mouse B16-F10 cells assessed as release of HMGB1 at 50 nM incubated for 16 hrs followed by irradiated with 54 J/cm^2 light dose and further incubated for 6 hrs by Alexa Fluor 488/Hoechst 33342 staining based confocal laser scanning microscopy; type: functional, cell-based
[20] = Biodistribution in liver of C57BL/6 mouse harboring mouse B16-F10 cells at 2 mg/kg, iv measured after 12 hrs by flourescence imaging assay; type: ADME, organism-based; settings: in vivo
[21] = Drug localisation in endoplasmic reticulum of human A-375 cells at 5 uM incubated for 16 hrs by ER Tracker Green based confocal laser scanning microscopy analysis; type: ADME, subcellular; settings: a-375, 16 h
[22] = Biodistribution in whole body of C57BL/6 mouse harboring B16-F10 cells at 2 mg/kg, iv measured after 12 hrs by flourescence imaging assay; type: ADME, organism-based; settings: in vivo
B16-F10 [23] = test: Induction of apoptosis in mouse B16-F10 cells assessed as early apoptotic cells at 250 nM incubated for 16 hrs followed by irradiated with 54 J/cm^2 light dose by Annexin V-FITC/PI based flow cytometric analysis (reference value: 6.48 %); type: functional
B16-F10 [24] = test: Antitumor activity against mouse B16-F10 cells implanted in C57BL/6 mouse assessed as tumor destruction at 2 mg/kg, iv irradiated with 60 J/cm^2 laser light measured after 14 days by hematoxylin and eosin based microscopic analysis; type: functional, organism-based; settings: time 14.0 day
B16-F10 [25] = test: Photodynamic therapy in mouse B16-F10 cells implanted in C57BL/6 mouse model assessed as increase infiltration of CD8+ T cells measured after 3 days by immunofluorescence staining based analysis; type: functional, cell-based; settings: time 3.0 day
[26] = Drug localisation in mitochondria of human A-375 cells at 5 uM incubated for 16 hrs by Mito Tracker Green FM based confocal laser scanning microscopy analysis; type: ADME; settings: a-375, 16 h

Drug uptake [7]: Active
logP [13]: -0.77
Drug uptake [14]: Active
Drug uptake (B16-F10 [17]): Active
Drug uptake [18]: Active
Drug uptake [20]: Active
Drug uptake [21]: Active
Drug uptake [22]: Active
Drug uptake [26]: Active
Structure (SMILES): COc1ccc(C2=[N+]3C(=Nc4c(-c5ccccc5)c5c(n4[B-]3(F)F)-c3ccc(OCC(=O)N[C@@H](CC(=O)O)C(=O)O)cc3CC5)C(c3ccccc3)=C2I)cc1
IC50 [1]: 65 nM
IC50 [2]: 81 nM
Activity (A-375 [3]): 93.81%
viability at 0.01 µM (B16-F10 [4]): 88.9%
Activity (B16-F10 [5]): 7.98%
Activity (B16-F10 [6]): 2.93%
IC50 [8]: 21 nM
Activity (A-375 [9]): 6.68%
Activity (B16-F10 [10]): 0.29%
Activity (B16-F10 [11]): Active
Activity (B16-F10 [12]): 2.67%
Activity (B16-F10 [15]): 3.51%
Activity (B16-F10 [16]): inactive
Activity (B16-F10 [19]): Active
Activity (B16-F10 [23]): 75.41%
Activity (B16-F10 [24]): Active
Activity (B16-F10 [25]): Active
